# Test results taken from patent publication US9283163B2, “Collagen stimulators and their use in the treatment of skin” (Avon Products, Inc., priority 2012, dated 2016).
# Test system: Normal Human dermal fibroblasts
# Experiment: Stimulation of collagen production: Procollagen Type-I C-Peptide EIA on conditioned media
# Format: cell-based
# Conditions: 0.0005% compound, 48 hours, p<0.05
# Description: Cell Treatment: Normal Human dermal fibroblasts were grown in DMEM (Mediatech; cat. #: 15-013-CV) containing 10% Fetal Bovine Serum (Perbio; cat. #: SH30070.03), Penicillin/Streptomycin (Mediatech, Cat #30-001-C1), L-Glutamine (Mediatech; cat. #: 25-005-CI) at 37° C. and 10% CO2. Cells were stripped of serum overnight, followed by treatment with the compound of Formula I(b) (0.0005%) or vehicle (DMSO), in the absence of serum for 48 hours.
# Reading was measured at 450 nm using a spectrophotometer.
# Human dermal fibroblasts treated with 0.0005% the compound of Formula I(b) for 48 hours were analyzed by ELISA for expression levels of pro-collagen. […] All values are statistically significant at p<0.05.
compound,measurement,setting,value
COc1ccc(Cc2nc(=O)c(CCC(=O)N3CCC(C)CC3)n[nH]2)cc1OC [Formula I(b)],"pro-collagen, relative to control, vehicle treated cells","ELISA, result in words",significant increase
same,Procollagen,"serum-free, procollagen in conditioned media by ELISA, vehicle (DMSO) control = 100%",146%
